What was measured:
Acetylcholinesterase = Acetylcholinesterase (Homo sapiens, UniProt P22303); assay: DRUGMATRIX: Acetylcholinesterase enzyme inhibition (substrate: acetylthiocholine); assay type: cell-based, HEK293; conditions: hek293; Not Active = under 50% inhibition at 10 µM
Glycine receptor = Glycine receptor (Rattus norvegicus, UniProt P22771+P24524+P07727+P20781); assay type: cell membranes, Wistar, Spinal cord, Membrane; also: in other assays of this panel Not Active means under 50% inhibition at 10 µM
[1] = DRUGMATRIX: Potassium Channel [KATP] radioligand binding (ligand: [3H] Glyburide); assay type: cell membranes, Membrane; conditions: hit-t15; Not Active = under 50% inhibition at 10 µM
[2] = DRUGMATRIX: Leukotriene, BLT (LTB4) radioligand binding (ligand: [3H]LTB4); assay type: cell membranes, Membrane; conditions: u-937; Not Active = under 50% inhibition at 10 µM
Nitric oxide synthase 1 = Nitric oxide synthase 1 (Rattus norvegicus, UniProt P29476); assay type: tissue-based, Cerebellum; also: in other assays of this panel Not Active means under 50% inhibition at 10 µM
[3] = DRUGMATRIX: Glutamate, NMDA, Phencyclidine radioligand binding (ligand: [3H] TCP); assay type: cell membranes, Rattus norvegicus, Wistar, Cerebral cortex, Membrane; conditions: Not Active = under 50% inhibition at 10 µM
Interstitial collagenase = molecular target: T1, Interstitial collagenase (Homo sapiens, UniProt P03956); assay: biochemical; assay type: tissue-based, Rheumatoid synovial fibroblasts;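 also: MMP-1 enzyme inhibition assay using a peptide substrate; in other assays of this panel Not Active means under 50% inhibition at 10 µM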
T1 sequence (P03956 whole entry): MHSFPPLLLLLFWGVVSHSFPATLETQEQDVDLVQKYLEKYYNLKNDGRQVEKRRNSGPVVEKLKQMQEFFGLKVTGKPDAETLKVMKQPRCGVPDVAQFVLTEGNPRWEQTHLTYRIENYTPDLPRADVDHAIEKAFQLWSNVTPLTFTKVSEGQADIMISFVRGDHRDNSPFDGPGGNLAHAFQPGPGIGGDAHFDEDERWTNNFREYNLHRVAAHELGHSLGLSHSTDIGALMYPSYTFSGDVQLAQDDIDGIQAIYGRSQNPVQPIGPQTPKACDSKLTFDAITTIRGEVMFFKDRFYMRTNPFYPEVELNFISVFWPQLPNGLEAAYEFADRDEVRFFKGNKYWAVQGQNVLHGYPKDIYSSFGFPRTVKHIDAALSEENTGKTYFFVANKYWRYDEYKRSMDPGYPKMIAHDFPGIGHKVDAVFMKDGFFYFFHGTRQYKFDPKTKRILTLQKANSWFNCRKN

[4] = molecular target: T2, 3-hydroxy-3-methylglutaryl-coenzyme A reductase (Homo sapiens, UniProt P04035); parameters: species or system Escherichia coli;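 also: enzyme inhibition assay of HMG-CoA reductase using radiolabeled [14C]HMG-CoA as substrate; in other assays of this panel Not Active means under 50% inhibition at 10 µM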
T2 sequence (P04035 whole entry): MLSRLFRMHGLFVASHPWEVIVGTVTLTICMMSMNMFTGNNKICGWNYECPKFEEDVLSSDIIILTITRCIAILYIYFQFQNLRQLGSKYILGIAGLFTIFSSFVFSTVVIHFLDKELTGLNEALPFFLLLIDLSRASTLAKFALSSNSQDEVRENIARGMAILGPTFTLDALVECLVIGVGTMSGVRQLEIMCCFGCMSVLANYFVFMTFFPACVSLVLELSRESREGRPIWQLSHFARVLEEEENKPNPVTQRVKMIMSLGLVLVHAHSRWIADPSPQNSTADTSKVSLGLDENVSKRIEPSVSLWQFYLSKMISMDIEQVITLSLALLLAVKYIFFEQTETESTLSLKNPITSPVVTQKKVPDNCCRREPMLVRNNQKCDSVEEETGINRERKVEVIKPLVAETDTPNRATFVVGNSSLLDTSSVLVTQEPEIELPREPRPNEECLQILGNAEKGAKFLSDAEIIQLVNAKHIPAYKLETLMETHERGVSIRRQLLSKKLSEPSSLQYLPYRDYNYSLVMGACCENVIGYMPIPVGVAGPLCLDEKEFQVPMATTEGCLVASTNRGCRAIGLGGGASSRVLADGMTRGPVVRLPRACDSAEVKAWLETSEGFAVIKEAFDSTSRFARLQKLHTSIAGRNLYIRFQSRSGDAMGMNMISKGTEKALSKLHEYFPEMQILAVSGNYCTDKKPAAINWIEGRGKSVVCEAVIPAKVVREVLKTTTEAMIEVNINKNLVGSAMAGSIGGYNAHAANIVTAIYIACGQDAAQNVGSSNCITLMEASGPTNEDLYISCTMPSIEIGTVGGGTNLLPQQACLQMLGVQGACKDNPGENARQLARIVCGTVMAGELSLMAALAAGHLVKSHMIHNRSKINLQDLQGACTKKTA

Chain of Nitric oxide synthase 1 (P29476 whole entry): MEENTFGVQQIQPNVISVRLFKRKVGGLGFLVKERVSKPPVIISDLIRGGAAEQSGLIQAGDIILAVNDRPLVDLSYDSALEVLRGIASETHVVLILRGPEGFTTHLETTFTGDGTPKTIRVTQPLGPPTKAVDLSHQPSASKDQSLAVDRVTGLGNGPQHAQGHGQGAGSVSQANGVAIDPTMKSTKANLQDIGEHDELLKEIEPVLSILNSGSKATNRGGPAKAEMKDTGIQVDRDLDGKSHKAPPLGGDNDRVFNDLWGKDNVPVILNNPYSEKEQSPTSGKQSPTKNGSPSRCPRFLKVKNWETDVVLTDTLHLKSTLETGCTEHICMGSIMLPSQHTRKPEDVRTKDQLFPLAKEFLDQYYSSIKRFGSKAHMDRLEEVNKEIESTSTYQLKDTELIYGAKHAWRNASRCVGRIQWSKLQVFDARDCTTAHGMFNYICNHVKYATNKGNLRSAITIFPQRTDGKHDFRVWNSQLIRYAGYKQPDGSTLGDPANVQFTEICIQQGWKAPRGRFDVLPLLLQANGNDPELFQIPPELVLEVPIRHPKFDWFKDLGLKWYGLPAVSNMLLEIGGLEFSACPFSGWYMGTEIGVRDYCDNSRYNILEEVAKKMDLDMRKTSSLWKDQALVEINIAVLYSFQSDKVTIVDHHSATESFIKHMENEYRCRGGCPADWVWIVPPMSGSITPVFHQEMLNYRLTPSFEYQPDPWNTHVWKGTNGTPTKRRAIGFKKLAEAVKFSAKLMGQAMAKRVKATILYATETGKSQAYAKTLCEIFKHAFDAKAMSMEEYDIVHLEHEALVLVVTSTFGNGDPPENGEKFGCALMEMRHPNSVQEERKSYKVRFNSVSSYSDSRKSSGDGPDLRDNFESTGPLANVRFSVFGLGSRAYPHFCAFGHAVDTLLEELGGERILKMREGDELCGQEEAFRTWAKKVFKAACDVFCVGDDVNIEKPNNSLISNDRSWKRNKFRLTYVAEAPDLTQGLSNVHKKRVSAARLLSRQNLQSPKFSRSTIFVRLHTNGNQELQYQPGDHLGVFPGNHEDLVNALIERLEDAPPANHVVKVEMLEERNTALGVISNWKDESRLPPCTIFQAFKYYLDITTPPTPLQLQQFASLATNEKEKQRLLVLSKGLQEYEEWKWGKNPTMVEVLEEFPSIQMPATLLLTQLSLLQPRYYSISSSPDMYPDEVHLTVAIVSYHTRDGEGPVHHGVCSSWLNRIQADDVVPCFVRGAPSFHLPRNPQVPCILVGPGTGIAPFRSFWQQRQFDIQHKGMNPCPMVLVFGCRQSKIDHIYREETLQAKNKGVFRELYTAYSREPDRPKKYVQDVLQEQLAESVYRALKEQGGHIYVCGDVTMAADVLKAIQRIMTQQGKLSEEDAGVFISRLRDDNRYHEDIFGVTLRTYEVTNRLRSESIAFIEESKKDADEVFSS
Chain of Acetylcholinesterase (P22303 whole entry): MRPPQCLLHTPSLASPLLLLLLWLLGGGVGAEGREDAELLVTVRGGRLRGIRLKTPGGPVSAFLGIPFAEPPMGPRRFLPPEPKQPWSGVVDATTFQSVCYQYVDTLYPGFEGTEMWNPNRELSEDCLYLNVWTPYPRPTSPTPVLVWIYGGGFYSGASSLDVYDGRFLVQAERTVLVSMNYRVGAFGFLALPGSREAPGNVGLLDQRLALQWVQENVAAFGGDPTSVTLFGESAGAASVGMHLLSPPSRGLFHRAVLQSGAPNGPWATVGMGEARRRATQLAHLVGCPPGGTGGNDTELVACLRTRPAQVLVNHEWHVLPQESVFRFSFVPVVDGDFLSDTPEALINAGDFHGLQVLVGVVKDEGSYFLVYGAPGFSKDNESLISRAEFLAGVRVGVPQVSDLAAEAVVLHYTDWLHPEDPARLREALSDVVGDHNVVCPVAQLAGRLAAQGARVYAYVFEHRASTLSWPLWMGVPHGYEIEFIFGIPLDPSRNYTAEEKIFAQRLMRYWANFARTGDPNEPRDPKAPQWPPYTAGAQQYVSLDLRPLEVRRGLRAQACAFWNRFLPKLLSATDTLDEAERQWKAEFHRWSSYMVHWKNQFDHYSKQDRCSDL

CC(C)(C)NC(=O)[C@@H]1C[C@@H]2CCCC[C@@H]2CN1C[C@@H](O)[C@H](Cc1ccccc1)NC(=O)[C@H](CC(N)=O)NC(=O)c1ccc2ccccc2n1
Not Active: IC50 (Acetylcholinesterase) | IC50 (Glycine receptor) | IC50 [1] | Ki [1] | IC50 [2] | Ki [2] | IC50 (Nitric oxide synthase 1) | IC50 [3] | Ki [3] | IC50 (Interstitial collagenase) | IC50 [4]

CC(=O)[C@@]1(O)CC[C@H]2[C@@H]3C[C@H](C)C4=CC(=O)CC[C@]4(C)[C@H]3CC[C@@]21C
Not Active: IC50 (Acetylcholinesterase) | IC50 (Glycine receptor) | IC50 [1] | Ki [1] | IC50 [2] | Ki [2] | IC50 (Nitric oxide synthase 1) | IC50 [3] | Ki [3] | IC50 (Interstitial collagenase) | IC50 [4]

N[C@@H](Cc1ccc(N(CCCl)CCCl)cc1)C(=O)O
Not Active: IC50 (Acetylcholinesterase) | IC50 (Glycine receptor) | IC50 [1] | Ki [1] | IC50 [2] | Ki [2] | IC50 (Nitric oxide synthase 1) | IC50 [3] | Ki [3] | IC50 (Interstitial collagenase) | IC50 [4]

CCCCc1oc2ccccc2c1C(=O)c1cc(I)c(OCCN(CC)CC)c(I)c1 [AMIODARONE]
Not Active: IC50 (Acetylcholinesterase) | IC50 (Glycine receptor) | IC50 (Nitric oxide synthase 1) | IC50 (Interstitial collagenase) | IC50 [4]

OCCN(CCO)c1nc(N2CCCCC2)c2nc(N(CCO)CCO)nc(N3CCCCC3)c2n1 [DIPYRIDAMOLE]
Not Active: IC50 (Acetylcholinesterase) | IC50 (Glycine receptor) | IC50 [1] | Ki [1] | IC50 [2] | Ki [2] | IC50 (Nitric oxide synthase 1) | IC50 [3] | Ki [3] | IC50 (Interstitial collagenase) | IC50 [4]

Cc1oncc1C(=O)Nc1ccc(C(F)(F)F)cc1 [LEFLUNOMIDE]
Not Active: IC50 (Acetylcholinesterase) | IC50 (Glycine receptor) | IC50 [1] | Ki [1] | IC50 [2] | Ki [2] | IC50 (Nitric oxide synthase 1) | IC50 [3] | Ki [3] | IC50 (Interstitial collagenase) | IC50 [4]

c1ccc([C@H]2CN3CCSC3=N2)cc1 [LEVAMISOLE]
Not Active: IC50 (Acetylcholinesterase) | IC50 (Glycine receptor) | IC50 [1] | Ki [1] | IC50 [2] | Ki [2] | IC50 (Nitric oxide synthase 1) | IC50 [3] | Ki [3] | IC50 (Interstitial collagenase) | IC50 [4]

N[C@@H](Cc1ccc(O)c(O)c1)C(=O)O [LEVODOPA]
Not Active: IC50 (Acetylcholinesterase) | IC50 (Glycine receptor) | IC50 [1] | Ki [1] | IC50 [2] | Ki [2] | IC50 (Nitric oxide synthase 1) | IC50 [3] | Ki [3] | IC50 (Interstitial collagenase) | IC50 [4]

N[C@@H](Cc1cc(I)c(Oc2ccc(O)c(I)c2)c(I)c1)C(=O)O [LIOTHYRONINE]
Not Active: IC50 (Acetylcholinesterase) | IC50 (Glycine receptor) | IC50 (Nitric oxide synthase 1) | IC50 (Interstitial collagenase) | IC50 [4]

O=NN(CCCl)C(=O)NC1CCCCC1 [LOMUSTINE]
Not Active: IC50 (Acetylcholinesterase) | IC50 (Glycine receptor) | IC50 [1] | Ki [1] | IC50 [2] | Ki [2] | IC50 (Nitric oxide synthase 1) | IC50 [3] | Ki [3] | IC50 (Interstitial collagenase) | IC50 [4]

CCOC(=O)N1CCC(=C2c3ccc(Cl)cc3CCc3cccnc32)CC1 [LORATADINE]
Not Active: IC50 (Acetylcholinesterase) | IC50 (Glycine receptor) | IC50 [1] | Ki [1] | IC50 [2] | Ki [2] | IC50 (Nitric oxide synthase 1) | IC50 [3] | Ki [3] | IC50 (Interstitial collagenase) | IC50 [4]

Cn1ccnc1S [METHIMAZOLE]
Not Active: IC50 (Acetylcholinesterase) | IC50 (Glycine receptor) | IC50 [1] | Ki [1] | IC50 [2] | Ki [2] | IC50 (Nitric oxide synthase 1) | IC50 [3] | Ki [3] | IC50 (Interstitial collagenase) | IC50 [4]

CC[C@@H](CO)NC(=O)[C@@H]1C=C2c3cccc4[nH]cc(c34)C[C@H]2N(C)C1 [METHYLERGONOVINE]
Not Active: IC50 (Acetylcholinesterase) | IC50 (Glycine receptor) | IC50 [1] | Ki [1] | IC50 [2] | Ki [2] | IC50 (Nitric oxide synthase 1) | IC50 [3] | Ki [3] | IC50 (Interstitial collagenase) | IC50 [4]

COc1nc(C)nc(Cl)c1NC1=NCCN1 [MOXONIDINE]
Not Active: IC50 (Acetylcholinesterase) | IC50 (Glycine receptor) | IC50 [1] | Ki [1] | IC50 [2] | Ki [2] | IC50 (Nitric oxide synthase 1) | IC50 [3] | Ki [3] | IC50 (Interstitial collagenase) | IC50 [4]

COc1c(C)c2c(c(O)c1C/C=C(\C)CCC(=O)O)C(=O)OC2 [MYCOPHENOLIC ACID]
Not Active: IC50 (Acetylcholinesterase) | IC50 (Glycine receptor) | IC50 [1] | Ki [1] | IC50 [2] | Ki [2] | IC50 (Nitric oxide synthase 1) | IC50 [3] | Ki [3] | IC50 (Interstitial collagenase) | IC50 [4]

O=c1ncn2nc(Sc3ccc(F)cc3F)ccc2c1-c1c(Cl)cccc1Cl [NEFLAMAPIMOD]
Not Active: IC50 (Acetylcholinesterase) | IC50 (Glycine receptor) | IC50 [1] | Ki [1] | IC50 [2] | Ki [2] | IC50 (Nitric oxide synthase 1) | IC50 [3] | Ki [3] | IC50 (Interstitial collagenase) | IC50 [4]

CN1CCN(CCCN2c3ccccc3Sc3ccc(Cl)cc32)CC1 [PROCHLORPERAZINE]
Not Active: IC50 (Acetylcholinesterase) | IC50 (Glycine receptor) | IC50 (Nitric oxide synthase 1) | IC50 (Interstitial collagenase) | IC50 [4]

CO[C@H]1/C=C/O[C@@]2(C)Oc3c(C)c(O)c4c(O)c(c(/C=N/N5CCN(C)CC5)c(O)c4c3C2=O)NC(=O)/C(C)=C\C=C\[C@H](C)[C@H](O)[C@@H](C)[C@@H](O)[C@@H](C)[C@H](OC(C)=O)[C@@H]1C [RIFAMPIN]
Not Active: IC50 (Acetylcholinesterase) | IC50 (Glycine receptor) | IC50 [1] | Ki [1] | IC50 [2] | Ki [2] | IC50 (Nitric oxide synthase 1) | IC50 [3] | Ki [3] | IC50 (Interstitial collagenase) | IC50 [4]

Nc1nc2ccc(OC(F)(F)F)cc2s1 [RILUZOLE]
Not Active: IC50 (Acetylcholinesterase) | IC50 (Glycine receptor) | IC50 [1] | Ki [1] | IC50 [2] | Ki [2] | IC50 (Nitric oxide synthase 1) | IC50 [3] | Ki [3] | IC50 (Interstitial collagenase) | IC50 [4]

Cc1nc2n(c(=O)c1CCN1CCC(c3noc4cc(F)ccc34)CC1)CCCC2 [RISPERIDONE]
Not Active: IC50 (Acetylcholinesterase) | IC50 (Glycine receptor) | IC50 (Nitric oxide synthase 1) | IC50 (Interstitial collagenase) | IC50 [4]

Nc1c2c(nc3ccccc13)CCCC2 [TACRINE]
Not Active: IC50 (Glycine receptor) | IC50 [1] | Ki [1] | IC50 [2] | Ki [2] | IC50 (Nitric oxide synthase 1) | IC50 [3] | Ki [3] | IC50 (Interstitial collagenase) | IC50 [4]

CC/C(=C(\c1ccccc1)c1ccc(OCCN(C)C)cc1)c1ccccc1 [TAMOXIFEN]
Not Active: IC50 (Acetylcholinesterase) | IC50 (Glycine receptor) | IC50 (Nitric oxide synthase 1) | IC50 (Interstitial collagenase) | IC50 [4]

Nc1nc2nc[nH]c2c(=S)[nH]1 [THIOGUANINE]
Not Active: IC50 (Acetylcholinesterase) | IC50 (Glycine receptor) | IC50 [2] | Ki [2] | IC50 (Nitric oxide synthase 1) | IC50 [3] | Ki [3] | IC50 (Interstitial collagenase) | IC50 [4]

Source: ChEMBL document CHEMBL1909046, “DrugMatrix in vitro pharmacology data”
